This assay deals with CD2F1 mice, L1210 leukemia ip, survival T/C. The experiment in a line: NCI In Vivo Anticancer Drug Screen. Data for tumor model L1210 Leukemia (intraperitoneal) in CD2F1 (CDF1) mice. The conditions noted are these: higher = longer survival. The method in brief:
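Mice carrying a transplanted tumor received test compound or vehicle alone. The value is the measurement in the treated group divided by that in the vehicle-treated control group.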

[1] abbreviates: endpoint: mean survival time, dose: 25.0 mg/kg/injection, schedule: Q01DX009 (ip), vehicle: water.
[2] abbreviates: endpoint: mean survival time, dose: 50.0 mg/kg/injection, schedule: Q01DX009 (ip), vehicle: water.
Setting [3] is: endpoint: mean survival time, dose: 100.0 mg/kg/injection, schedule: Q01DX009 (ip), vehicle: water.
The mark [4] stands for this setting: endpoint: mean survival time, dose: 100.0 mg/kg/injection, schedule: Q04DX003 (ip), vehicle: saline with Tween-80.
The mark [5] stands for this setting: endpoint: mean survival time, dose: 200.0 mg/kg/injection, schedule: Q04DX003 (ip), vehicle: saline with Tween-80.
Setting [6] is: endpoint: mean survival time, dose: 400.0 mg/kg/injection, schedule: Q04DX003 (ip), vehicle: saline with Tween-80.
[7] abbreviates: endpoint: mean survival time, dose: 100.0 mg/kg/injection, schedule: Q01DX009 (ip), vehicle: saline with Tween-80.
The mark [8] stands for this setting: endpoint: mean survival time, dose: 200.0 mg/kg/injection, schedule: Q01DX009 (ip), vehicle: saline with Tween-80.
The mark [9] stands for this setting: endpoint: mean survival time, dose: 400.0 mg/kg/injection, schedule: Q01DX009 (ip), vehicle: saline with Tween-80.

Values joined by “and” are separate entries in the source; they are usually repeats but may differ in a detail not shown here. Equal values may be shown once. Inconclusive results and toxic doses are left out.

Turning to `CN(C)CCSc1cc(O)c2c(c1O)C(=O)c1ccccc1C2=O`, the T/C is 95 % of control under setting [1]; 98 % of control under setting [2]; 92 % of control under setting [3]; 95 % of control (endpoint: mean survival time, dose: 200.0 mg/kg/injection, schedule: Q01DX009 (ip), vehicle: water).

Consider `O=C(Nc1nc2ccccc2s1)c1cc2ccccc2cc1O`, for which the T/C under setting [4] is 87 % of control, the T/C under setting [5] is 98 % of control and the T/C under setting [6] was 91 % of control.

On to `COc1ccccc1-n1c(O)c(N=Nc2ccccc2)c(=O)n(-c2ccccc2)c1=S`, for which, under “endpoint: mean survival time, dose: 100.0 mg/kg/injection, schedule: Q04DX003 (ip), vehicle: acetone”, the T/C was 90 % of control.

`CC(Br)C1(c2ccccc2)OCCO1` (stereo unspecified): the T/C runs as follows: (endpoint: mean survival time, dose: 100.0 mg/kg/injection, schedule: Q01DX001 (ip), vehicle: saline with Tween-80) 100 % of control; under setting [7], 114 % of control; under setting [4], 104 % of control; (endpoint: mean survival time, dose: 200.0 mg/kg/injection, schedule: Q01DX001 (ip), vehicle: saline with Tween-80) 94 % of control; under setting [5], 111 % of control; (endpoint: mean survival time, dose: 400.0 mg/kg/injection, schedule: Q01DX001 (ip), vehicle: saline with Tween-80) 102 % of control. In addition, under setting [6], the T/C was 101 % of control.

In the case of `N#CC12CC3CC(CC(C3)C1)C2`, the T/C (endpoint: mean survival time, dose: 5.0 mg/kg/injection, schedule: Q04DX003 (ip), vehicle: saline with Tween-80) was 104 % of control; the T/C (endpoint: mean survival time, dose: 10.0 mg/kg/injection, schedule: Q04DX003 (ip), vehicle: saline with Tween-80) is 104 % of control; the T/C (endpoint: mean survival time, dose: 20.0 mg/kg/injection, schedule: Q04DX003 (ip), vehicle: saline with Tween-80) was 100 % of control.

In the case of `C[n+]1cccc(CCc2ccc[n+](C)c2)c1`, the T/C was 92 % of control (endpoint: mean survival time, dose: 50.0 mg/kg/injection, schedule: Q01DX009 (ip), vehicle: saline) and 104 % of control (endpoint: mean survival time, dose: 100.0 mg/kg/injection, schedule: Q01DX009 (ip), vehicle: saline).

Take `CS(=O)(=O)OCCN(CCOS(C)(=O)=O)c1ccc(N=O)c(Cl)c1`: under setting [4], the T/C was 124 % of control.

Take `COc1cc(/C=C/c2nc3ccccc3nc2/C=C/c2cc(OC)c(OC)c(OC)c2)cc(OC)c1OC`: the T/C by setting is: under setting [8], 94 % of control; under setting [9], 100 % of control; under setting [6], 93 % of control.

Consider `CCCCNc1ncnc2snnc12`, for which the T/C is, setting by setting: (endpoint: mean survival time, dose: 100.0 mg/kg/injection, schedule: Q01DX001 (ip), vehicle: Klucel (hydroxypropylcellulose) (HPC)) 101 % of control; (endpoint: mean survival time, dose: 200.0 mg/kg/injection, schedule: Q01DX001 (ip), vehicle: Klucel (hydroxypropylcellulose) (HPC)) 98 % of control; (endpoint: mean survival time, dose: 400.0 mg/kg/injection, schedule: Q01DX001 (ip), vehicle: Klucel (hydroxypropylcellulose) (HPC)) 104 % of control.

As for `C1OC1CN1CCN(CC2CO2)CC1` (stereo unspecified), the T/C (endpoint: mean survival time, dose: 2.0 mg/kg/injection, schedule: Q03HX008 (ip), vehicle: saline) was 105 % of control; the T/C (endpoint: mean survival time, dose: 2.0 mg/kg/injection, schedule: Q03HX016 (ip), vehicle: saline) was 98 % of control; the T/C (endpoint: mean survival time, dose: 2.0 mg/kg/injection, schedule: Q03HX024 (ip), vehicle: saline) was 108 % of control; the T/C (endpoint: mean survival time, dose: 4.0 mg/kg/injection, schedule: Q03HX008 (ip), vehicle: saline) was 108 % of control; the T/C (endpoint: mean survival time, dose: 4.0 mg/kg/injection, schedule: Q03HX016 (ip), vehicle: saline) is 100 % of control; the T/C (endpoint: mean survival time, dose: 4.0 mg/kg/injection, schedule: Q03HX024 (ip), vehicle: saline) is 121 % of control. Moreover, the T/C was 121 % of control (endpoint: mean survival time, dose: 8.0 mg/kg/injection, schedule: Q01DX009 (ip), vehicle: saline); 108 % of control (endpoint: mean survival time, dose: 8.0 mg/kg/injection, schedule: Q01DX009 (sc), vehicle: saline); 113 % of control (endpoint: mean survival time, dose: 16.0 mg/kg/injection, schedule: Q01DX001 (ip), vehicle: saline); 105 % of control (endpoint: mean survival time, dose: 16.0 mg/kg/injection, schedule: Q01DX001 (sc), vehicle: saline); 120 % of control (endpoint: mean survival time, dose: 16.0 mg/kg/injection, schedule: Q04DX003 (ip), vehicle: saline); 103 % of control (endpoint: mean survival time, dose: 16.0 mg/kg/injection, schedule: Q08DX002 (ip), vehicle: saline). For the same molecule, the T/C reads like this: (endpoint: mean survival time, dose: 32.0 mg/kg/injection, schedule: Q01DX001 (sc), vehicle: saline) 108 % of control; (endpoint: mean survival time, dose: 32.0 mg/kg/injection, schedule: Q01DX009 (ip), vehicle: saline) 194 % of control; (endpoint: mean survival time, dose: 32.0 mg/kg/injection, schedule: Q08DX002 (ip), vehicle: saline) 120 % of control; (endpoint: mean survival time, dose: 64.0 mg/kg/injection, schedule: Q01DX001 (ip), vehicle: saline) 152 % of control; (endpoint: mean survival time, dose: 64.0 mg/kg/injection, schedule: Q01DX001 (sc), vehicle: saline) 122 % of control; (endpoint: mean survival time, dose: 64.0 mg/kg/injection, schedule: Q01DX009 (ip), vehicle: saline) 92 % of control. The T/C (endpoint: mean survival time, dose: 64.0 mg/kg/injection, schedule: Q01DX009 (sc), vehicle: saline) was 88 % of control; the T/C (endpoint: mean survival time, dose: 64.0 mg/kg/injection, schedule: Q04DX003 (ip), vehicle: saline) was 175 % of control; the T/C (endpoint: mean survival time, dose: 64.0 mg/kg/injection, schedule: Q08DX002 (ip), vehicle: saline) was 156 % of control; the T/C (endpoint: mean survival time, dose: 128.0 mg/kg/injection, schedule: Q01DX001 (ip), vehicle: saline) is 201 % of control; the T/C (endpoint: mean survival time, dose: 128.0 mg/kg/injection, schedule: Q04DX003 (ip), vehicle: saline) is 88 % of control; the T/C (endpoint: mean survival time, dose: 128.0 mg/kg/injection, schedule: Q08DX002 (ip), vehicle: saline) is 190 % of control.

Turning to `CCOCCc1ccncc1`, the T/C is, setting by setting: (endpoint: mean survival time, dose: 100.0 mg/kg/injection, schedule: Q04DX003 (ip), vehicle: saline) 101 % of control; (endpoint: mean survival time, dose: 200.0 mg/kg/injection, schedule: Q04DX003 (ip), vehicle: saline) 104 % of control.

`NN=C(c1ccccc1)c1ccccc1`: the T/C is 93 % of control (endpoint: mean survival time, dose: 150.0 mg/kg/injection, schedule: Q04DX003 (ip), vehicle: Klucel (hydroxypropylcellulose) (HPC)); 95 % of control (endpoint: mean survival time, dose: 225.0 mg/kg/injection, schedule: Q04DX003 (ip), vehicle: Klucel (hydroxypropylcellulose) (HPC)); 98 % of control (endpoint: mean survival time, dose: 335.0 mg/kg/injection, schedule: Q04DX003 (ip), vehicle: Klucel (hydroxypropylcellulose) (HPC)).

`CCCCCCCCCCCC(=O)OCC1OC2C(Oc3nc(=N)ccn32)C1OC(=O)CCCCCCCCCCC` (stereo unspecified): the T/C (endpoint: mean survival time, dose: 12.5 mg/kg/injection, schedule: Q01DX009 (ip), vehicle: water) was 168 % of control; the T/C under setting [1] was 247 % of control; the T/C under setting [2] is 187 % of control; the T/C under setting [3] was 98 % of control.

Turning to `CCC(CC)COC(=O)c1ccccc1C(=O)OCC(CC)CC`, the T/C was 108 % of control (endpoint: mean survival time, dose: 12.5 mg/kg/injection, schedule: Q01DX009 (ip), vehicle: saline with Tween-80); 101 % of control (endpoint: mean survival time, dose: 25.0 mg/kg/injection, schedule: Q01DX009 (ip), vehicle: saline with Tween-80); 104 % of control (endpoint: mean survival time, dose: 50.0 mg/kg/injection, schedule: Q01DX009 (ip), vehicle: saline with Tween-80); 102 % of control under setting [7]; 98 % of control under setting [8]; 100 % of control under setting [9].

For the molecule `Cc1sc(N)c(C#N)c1C`, the T/C is 102 % of control (endpoint: mean survival time, dose: 100.0 mg/kg/injection, schedule: Q01DX009 (ip), vehicle: saline sonified); 102 % of control (endpoint: mean survival time, dose: 200.0 mg/kg/injection, schedule: Q01DX009 (ip), vehicle: saline sonified); 103 % of control (endpoint: mean survival time, dose: 400.0 mg/kg/injection, schedule: Q01DX009 (ip), vehicle: saline sonified).

As to `CC[C@@]1(OC(=O)C(N)CCCCN)C(=O)OCc2c1cc1n(c2=O)Cc2cc3ccccc3nc2-1` (stereo partly specified), the T/C was 114 % of control (endpoint: median survival time, dose: 7.29 mg/kg/injection, schedule: Q04DX002 (ip), vehicle: water); 165 % of control and 178 % of control (endpoint: median survival time, dose: 10.94 mg/kg/injection, schedule: Q04HX004 (iv), vehicle: water); 122 % of control (endpoint: median survival time, dose: 14.58 mg/kg/injection, schedule: Q04DX002 (ip), vehicle: water); 197 % of control and 201 % of control (endpoint: median survival time, dose: 21.87 mg/kg/injection, schedule: Q04HX004 (iv), vehicle: water); 188 % of control and 204 % of control (endpoint: median survival time, dose: 29.17 mg/kg/injection, schedule: Q04DX002 (ip), vehicle: water); 231 % of control and 253 % of control (endpoint: median survival time, dose: 58.33 mg/kg/injection, schedule: Q04DX002 (ip), vehicle: water). Besides, the T/C (endpoint: median survival time, dose: 116.7 mg/kg/injection, schedule: Q04DX002 (ip), vehicle: water) is 214 % of control.

The values above are taken from PubChem BioAssay AID256 (DTP/NCI, 2004).
